Laboratory results published in ChEMBL document CHEMBL3885881, “DrugMatrix”.

Organism: Rattus norvegicus
Test: DrugMatrix - Regimen: Daily Repeat
Type: toxicity, organism-based, Sprague-Dawley
Set-up: regimen Daily Repeat, gender Male, age 6-8 weeks
Conditions: in vivo, po, route oral GAVAGE, […]; for ABSOLUTE BASOPHIL / ABSOLUTE EOSINOPHIL / ABSOLUTE LYMPHOCYTE / ABSOLUTE MONOCYTE / ABSOLUTE SEGMENTED NEUTROPHIL / BASOPHIL / EOSINOPHIL / ERYTHROCYTE COUNT / HEMATOCRIT / HEMOGLOBIN / LEUKOCYTE COUNT / LYMPHOCYTE / MEAN CORPUSCULAR HEMOGLOBIN / MEAN CORPUSCULAR HEMOGLOBIN CONCENTRATION / MEAN CORPUSCULAR VOLUME / MONOCYTE / NEUTROPHIL / NUCLEATED RED BLOOD CELLS / PLATELET COUNT: tissue Blood; for ALANINE AMINOTRANSFERASE / ALBUMIN / ALKALINE PHOSPHATASE / ASPARTATE AMINOTRANSFERASE / BLOOD UREA NITROGEN / CARBON DIOXIDE / CHLORIDE / CHOLESTEROL / CREATINE PHOSPHOKINASE / CREATININE / GLUCOSE / LACTATE DEHYDROGENASE / LIPASE / PHOSPHORUS / POTASSIUM / SODIUM / TOTAL BILIRUBIN / TOTAL PROTEIN / URIC ACID: tissue Plasma
[1] = 100 mg/kg, 120 h, dose level Low, time 5 day
[2] = 750 mg/kg, 72 h, dose level High, time 3 day
[3] = 750 mg/kg, 120 h, dose level High, time 5 day

Q: For `CCn1cc(C(=O)O)c(=O)c2cc(F)c(N3CCNCC3)nc21` [ENOXACIN], which “ABSOLUTE BASOPHIL” value [1] is on record?
A: 0 CELLS/uL

Q: And the “ABSOLUTE EOSINOPHIL” value [1]?
A: 262.67 CELLS/uL

Q: What about the “ABSOLUTE LYMPHOCYTE” value [1] of the same compound?
A: 12714 CELLS/uL

Q: What about the “ABSOLUTE MONOCYTE” value [1] of the same compound?
A: 457 CELLS/uL

Q: And the “ABSOLUTE SEGMENTED NEUTROPHIL” value [1]?
A: 1799.67 CELLS/uL

Q: And the BASOPHIL [1]?
A: 0%

Q: What about the EOSINOPHIL [1] of the same compound?
A: 1.33%

Q: And the “ERYTHROCYTE COUNT” value [1]?
A: 5.43 x10E6/uL

Q: And the HEMATOCRIT [1]?
A: 34.07%

Q: What about the HEMOGLOBIN [1] of the same compound?
A: 13.27 G/DL

Q: What about the “LEUKOCYTE COUNT” value [1] of the same compound?
A: 15.23 x10E3/uL

Q: What about the LYMPHOCYTE [1] of the same compound?
A: 83.33%

Q: And the “MEAN CORPUSCULAR HEMOGLOBIN” value [1]?
A: 24.4 pg

Q: What about the “MEAN CORPUSCULAR HEMOGLOBIN CONCENTRATION” value [1] of the same compound?
A: 38.93 G/DL

Q: What about the “MEAN CORPUSCULAR VOLUME” value [1] of the same compound?
A: 62.67 fL

Q: And the MONOCYTE [1]?
A: 3%

Q: What about the NEUTROPHIL [1] of the same compound?
A: 12.33%

Q: What about the “NUCLEATED RED BLOOD CELLS” value [1] of the same compound?
A: 0 /100WBC

Q: What about the “PLATELET COUNT” value [1] of the same compound?
A: 958 x10E3/uL

Q: What about the “ALANINE AMINOTRANSFERASE” value [1] of the same compound?
A: 51.33 u/L

Q: What about the ALBUMIN [1] of the same compound?
A: 4.1 G/DL

Q: What about the “ALKALINE PHOSPHATASE” value [1] of the same compound?
A: 295.33 u/L

Q: And the “ASPARTATE AMINOTRANSFERASE” value [1]?
A: 76.33 u/L

Q: And the “BLOOD UREA NITROGEN” value [1]?
A: 14.33 mg/dL

Q: What about the “CARBON DIOXIDE” value [1] of the same compound?
A: 23 mmol/L

Q: What about the CHLORIDE [1] of the same compound?
A: 101 MEQ/L

Q: What about the CHOLESTEROL [1] of the same compound?
A: 78.33 mg/dL

Q: What about the “CREATINE PHOSPHOKINASE” value [1] of the same compound?
A: 454 u/L

Q: And the CREATININE [1]?
A: 0.19 mg/dL

Q: And the GLUCOSE [1]?
A: 186.67 mg/dL

Q: And the “LACTATE DEHYDROGENASE” value [1]?
A: 187 u/L

Q: What about the LIPASE [1] of the same compound?
A: 6.33 u/L

Q: What about the PHOSPHORUS [1] of the same compound?
A: 12.27 mg/dL

Q: And the POTASSIUM [1]?
A: 6.41 MEQ/L

Q: And the SODIUM [1]?
A: 140.57 MEQ/L

Q: And the “TOTAL BILIRUBIN” value [1]?
A: 0.13 mg/dL

Q: And the “TOTAL PROTEIN” value [1]?
A: 5.9 G/DL

Q: And the “URIC ACID” value [1]?
A: 1.2 mg/dL

Q: And the “ABSOLUTE BASOPHIL” value [2]?
A: 0 CELLS/uL

Q: And the “ABSOLUTE EOSINOPHIL” value [2]?
A: 0 CELLS/uL

Q: And the “ABSOLUTE LYMPHOCYTE” value [2]?
A: 12588.33 CELLS/uL

Q: What about the “ABSOLUTE MONOCYTE” value [2] of the same compound?
A: 501.33 CELLS/uL

Q: What about the “ABSOLUTE SEGMENTED NEUTROPHIL” value [2] of the same compound?
A: 1877 CELLS/uL

Q: And the BASOPHIL [2]?
A: 0%

Q: What about the EOSINOPHIL [2] of the same compound?
A: 0%

Q: What about the “ERYTHROCYTE COUNT” value [2] of the same compound?
A: 5.55 x10E6/uL

Q: What about the HEMATOCRIT [2] of the same compound?
A: 34.83%

Q: And the HEMOGLOBIN [2]?
A: 13.57 G/DL

Q: And the “LEUKOCYTE COUNT” value [2]?
A: 14.97 x10E3/uL

Q: What about the LYMPHOCYTE [2] of the same compound?
A: 84.33%

Q: What about the “MEAN CORPUSCULAR HEMOGLOBIN” value [2] of the same compound?
A: 24.47 pg

Q: And the “MEAN CORPUSCULAR HEMOGLOBIN CONCENTRATION” value [2]?
A: 38.93 G/DL

Q: And the “MEAN CORPUSCULAR VOLUME” value [2]?
A: 62.87 fL

Q: And the MONOCYTE [2]?
A: 3.33%

Q: What about the NEUTROPHIL [2] of the same compound?
A: 12.33%

Q: What about the “NUCLEATED RED BLOOD CELLS” value [2] of the same compound?
A: 0 /100WBC

Q: And the “PLATELET COUNT” value [2]?
A: 1299.33 x10E3/uL

Q: And the “ALANINE AMINOTRANSFERASE” value [2]?
A: 54 u/L

Q: What about the ALBUMIN [2] of the same compound?
A: 3.8 G/DL

Q: And the “ALKALINE PHOSPHATASE” value [2]?
A: 389 u/L

Q: And the “ASPARTATE AMINOTRANSFERASE” value [2]?
A: 64.33 u/L

Q: What about the “BLOOD UREA NITROGEN” value [2] of the same compound?
A: 14.67 mg/dL

Q: And the “CARBON DIOXIDE” value [2]?
A: 24.67 mmol/L

Q: And the CHLORIDE [2]?
A: 101.67 MEQ/L

Q: What about the CHOLESTEROL [2] of the same compound?
A: 66.33 mg/dL

Q: And the “CREATINE PHOSPHOKINASE” value [2]?
A: 317.67 u/L

Q: And the CREATININE [2]?
A: 0.12 mg/dL

Q: What about the GLUCOSE [2] of the same compound?
A: 181.33 mg/dL

Q: What about the “LACTATE DEHYDROGENASE” value [2] of the same compound?
A: 80.33 u/L

Q: What about the LIPASE [2] of the same compound?
A: 10 u/L

Q: What about the PHOSPHORUS [2] of the same compound?
A: 9.8 mg/dL

Q: And the POTASSIUM [2]?
A: 5.81 MEQ/L

Q: And the SODIUM [2]?
A: 140.9 MEQ/L

Q: What about the “TOTAL BILIRUBIN” value [2] of the same compound?
A: 0.1 mg/dL

Q: And the “TOTAL PROTEIN” value [2]?
A: 5.63 G/DL

Q: And the “URIC ACID” value [2]?
A: 1.27 mg/dL

Q: What about the “ABSOLUTE BASOPHIL” value [3] of the same compound?
A: 0 CELLS/uL

Q: What about the “ABSOLUTE EOSINOPHIL” value [3] of the same compound?
A: 145 CELLS/uL

Q: What about the “ABSOLUTE LYMPHOCYTE” value [3] of the same compound?
A: 12773 CELLS/uL

Q: What about the “ABSOLUTE MONOCYTE” value [3] of the same compound?
A: 466 CELLS/uL

Q: And the “ABSOLUTE SEGMENTED NEUTROPHIL” value [3]?
A: 1749.33 CELLS/uL

Q: And the BASOPHIL [3]?
A: 0%

Q: And the EOSINOPHIL [3]?
A: 1%

Q: And the “ERYTHROCYTE COUNT” value [3]?
A: 5.4 x10E6/uL

Q: And the HEMATOCRIT [3]?
A: 33.53%

Q: What about the HEMOGLOBIN [3] of the same compound?
A: 13.27 G/DL

Q: And the “LEUKOCYTE COUNT” value [3]?
A: 15.13 x10E3/uL

Q: What about the LYMPHOCYTE [3] of the same compound?
A: 84.33%

Q: And the “MEAN CORPUSCULAR HEMOGLOBIN” value [3]?
A: 24.57 pg

Q: What about the “MEAN CORPUSCULAR HEMOGLOBIN CONCENTRATION” value [3] of the same compound?
A: 39.6 G/DL

Q: And the “MEAN CORPUSCULAR VOLUME” value [3]?
A: 62.07 fL

Q: What about the MONOCYTE [3] of the same compound?
A: 3%

Q: And the NEUTROPHIL [3]?
A: 11.67%

Q: What about the “NUCLEATED RED BLOOD CELLS” value [3] of the same compound?
A: 0 /100WBC

Q: And the “PLATELET COUNT” value [3]?
A: 1091.67 x10E3/uL

Q: And the “ALANINE AMINOTRANSFERASE” value [3]?
A: 57.67 u/L

Q: What about the ALBUMIN [3] of the same compound?
A: 4.03 G/DL

Q: And the “ALKALINE PHOSPHATASE” value [3]?
A: 396.33 u/L

Q: And the “ASPARTATE AMINOTRANSFERASE” value [3]?
A: 69.67 u/L

Q: What about the “BLOOD UREA NITROGEN” value [3] of the same compound?
A: 12.67 mg/dL

Q: What about the “CARBON DIOXIDE” value [3] of the same compound?
A: 24 mmol/L

Q: What about the CHLORIDE [3] of the same compound?
A: 101.33 MEQ/L

Q: And the CHOLESTEROL [3]?
A: 61.33 mg/dL

Q: What about the “CREATINE PHOSPHOKINASE” value [3] of the same compound?
A: 482.67 u/L

Q: And the CREATININE [3]?
A: 0.16 mg/dL

Q: And the GLUCOSE [3]?
A: 207 mg/dL

Q: What about the “LACTATE DEHYDROGENASE” value [3] of the same compound?
A: 141 u/L

Q: And the LIPASE [3]?
A: 6.67 u/L

Q: And the PHOSPHORUS [3]?
A: 13.2 mg/dL

Q: And the POTASSIUM [3]?
A: 5.17 MEQ/L

Q: And the SODIUM [3]?
A: 141.5 MEQ/L

Q: What about the “TOTAL BILIRUBIN” value [3] of the same compound?
A: 0.13 mg/dL

Q: What about the “TOTAL PROTEIN” value [3] of the same compound?
A: 5.8 G/DL

Q: And the “URIC ACID” value [3]?
A: 1.5 mg/dL
